The subject of the test is HCT 116 cells transfected with a luciferase reporter under the control of an HIF-responsive sequence. Briefly: HIF-luciferase assay. In kind it is cell-based. As to conditions: Homo sapiens; HCT 116 HIF-luciferase reporter cells, hypoxia chamber (1% O2), 24 h; in some cases means of up to four individual determinations. The protocol:
HCT 116 cells were transfected in a stable manner with a plasmid which contained a luciferase reporter under the control of an HIF-responsive sequence. These cells were sown in microtitre plates [20 000 cells/cavity in RPMI 1640 medium with 10% foetal calf serum (FCS) and 100 μg/ml of hygromycin]. Incubation was carried out overnight under standard conditions (5% CO2, 21% O2, 37° C., moistened). The following morning the cells were incubated with various concentrations of the test substances (0-10 μmol/l) in a hypoxia chamber (1% O2). After 24 h, Bright Glo reagent (Promega, Wisconsin, USA) was added in accordance with the manufacturer's instructions, and after 5 min the luminescence was measured. Cells which were incubated under normoxia served as background controls.
The IC50 values from this assay for representative working examples are listed in the following table (in same cases as means of up to four individual determinations): […]

A word on the IC50: it is the concentration at which inhibition is half-maximal. `Cc1cc(/C(F)=C/c2ccc(C3(C(F)(F)F)CC3)cc2)nn1Cc1cccc(C(=O)N2CCCC2)c1` [Example 29, [3-({3-[(Z)-1-Fluoro-2-{4-[1-(trifluoromethyl)cyclopropyl]phenyl}vinyl]-5-methyl-1H-pyrazol-1-yl}methyl)phenyl](pyrrolidin-1-yl)methanone] came in with an IC50 of 5 nM.

Take `Cc1cc(/C(F)=C/c2ccc(OC(F)(F)F)cc2)nn1Cc1cccc(C(=O)N2CCOCC2)c1` [Example 31, {3-[(3-{(Z)-1-Fluoro-2-[4-(trifluoromethoxy)phenyl]vinyl}-5-methyl-1H-pyrazol-1-yl)methyl]-phenyl}(morpholin-4-yl)methanone]: 3 nM corresponded to half-maximal inhibition (IC50). For the compound `CNc1ccc(Cn2nc(/C(F)=C/c3ccc(C4CCCCC4)cc3)cc2C)cn1` [Example 88, 5-({3-[(Z)-2-(4-Cyclohexylphenyl)-1-fluorovinyl]-5-methyl-1H-pyrazol-1-yl}methyl)-N-methylpyridine-2-amine], the IC50 stood at 2 nM. Next, `CC(=O)OC1(c2cccc(Cn3nc(/C(F)=C/c4ccc(OC(F)(F)F)cc4)cc3C)c2)CC1` [Example 43, 1-{3-[(3-{(Z)-1-Fluoro-2-[4-(trifluoromethoxy)phenyl]vinyl}-5-methyl-1H-pyrazol-1-yl)methyl]phenyl}cyclopropyl acetate]: 2 nM; `CNc1ccc(Cn2nc(/C(F)=C/c3ccc(SC(F)(F)F)cc3)cc2C)cn1` [Example 82, 5-({3-[(Z)-1-Fluoro-2-{4-[(trifluoromethyl)sulphanyl]phenyl}vinyl]-5-methyl-1H-pyrazol-1-yl}-methyl)-N-methylpyridine-2-amine]: 1 nM; `CNc1ccc(Cn2nc(/C(F)=C/c3ccc(OC(F)(F)F)c(Cl)c3)cc2C)cn1` [Example 81, 5-[(3-{(Z)-2-[3-Chloro-4-(trifluoromethoxy)phenyl]-1-fluorovinyl}-5-methyl-1H-pyrazol-1-yl)-methyl]-N-methylpyridine-2-amine]: 3 nM. Regarding `Cc1cc(/C(F)=C/c2ccc(C(C)(C)C(F)(F)F)cc2)nn1Cc1cccc(N2CC(O)C2)c1` [Example 16, 1-{3-[(3-{(Z)-1-Fluoro-2-[4-(1,1,1-trifluoro-2-methylpropan-2-yl)phenyl]vinyl}-5-methyl-1H-pyrazol-1-yl)methyl]phenyl}azetidin-3-ol], inhibition was half-maximal at 0.5 nM (IC50). Turning to `CNc1ccc(Cn2nc(/C(F)=C/c3ccc(N4CC(C)OC(C)C4)nc3)cc2C)cn1` (stereo not drawn) [Example 95, 5-[(3-{(Z)-2-[6-(2,6-Dimethylmorpholin-4-yl)pyridin-3-yl]-1-fluorovinyl}-5-methyl-1H-pyrazol-1-yl)methyl]-N-methylpyridine-2-amine], the IC50 is 0.6 nM. To `CNc1ccc(Cn2nc(/C(F)=C/c3ccc([Si](C)(C)C)cc3)cc2C)cn1` [Example 86, 5-[(3-{(Z)-1-Fluoro-2-[4-(trimethylsilyl)phenyl]vinyl}-5-methyl-1H-pyrazol-1-yl)methyl]-N-methylpyridine-2-amine] belongs 0.3 nM. Consider `Cc1cc(/C(F)=C/c2ccc(OC(F)(F)F)cc2)nn1Cc1cccc(C(=O)N2CCCC2)c1` [Example 26, {3-[(3-{(Z)-1-Fluoro-2-[4-(trifluoromethoxy)phenyl]vinyl}-5-methyl-1H-pyrazol-1-yl)-methyl]phenyl}(pyrrolidin-1-yl)methanone], for which inhibition was half-maximal at 1.5 nM (IC50). Next, `Cc1cc(/C(F)=C/c2ccc(C3(C(F)(F)F)CC3)cc2)nn1Cc1cccc(N2CCC(C#N)CC2)c1` [Example 11, 1-[3-({3-[(Z)-1-Fluoro-2-{4-[1-(trifluoromethyl)cyclopropyl]phenyl}vinyl]-5-methyl-1H-pyrazol-1-yl}methyl)phenyl]piperidine-4-carbonitrile]: 0.2 nM; `Cc1cc(/C(F)=C/c2ccc(OC(F)(F)F)cc2)nn1Cc1cccc(N2CCC(C#N)CC2)c1` [Example 9, 1-{3-[(3-{(Z)-1-Fluoro-2-[4-(trifluoromethoxy)phenyl]vinyl}-5-methyl-1H-pyrazol-1-yl)-methyl]phenyl}piperidine-4-carbonitrile]: 0.4 nM. On to `Cc1cc(/C(F)=C/c2ccc(C(C)(C)C(F)(F)F)cc2)nn1Cc1cccc(Br)c1` [Example 7, 1-(3-Bromobenzyl)-3-{(Z)-1-fluoro-2-[4-(1,1,1-trifluoro-2-methylpropan-2-yl)phenyl]vinyl}-5-methyl-1H-pyrazole], for which the IC50 is 40 nM. Next, `Cc1cc(/C(F)=C/c2ccc(C(C)(C)C(F)(F)F)cc2)nn1Cc1cccc(C(=O)N2CCCC2)c1` [Example 28, {3-[(3-{(Z)-1-Fluoro-2-[4-(1,1,1-trifluoro-2-methylpropan-2-yl)phenyl]vinyl}-5-methyl-1H-pyrazol-1-yl)methyl]phenyl}(pyrrolidin-1-yl)methanone]: 5 nM; `Cc1cc(/C(F)=C/c2ccc(C(C)(C)C(F)(F)F)cc2)nn1Cc1cccc(C(=O)N2CCC(O)CC2)c1` [Example 34, {3-[(3-{(Z)-1-Fluoro-2-[4-(1,1,1-trifluoro-2-methylpropan-2-yl)phenyl]vinyl}-5-methyl-1H-pyrazol-1-yl)methyl]phenyl}(4-hydroxypiperidin-1-yl)methanone]: 5 nM; `CCNc1ccc(Cn2nc(/C(F)=C/c3ccc(C(O)(C(F)(F)F)C(F)(F)F)cc3)cc2C)cn1` [Example 97, 2-{4-[(Z)-2-(1-{[6-(Ethylamino)pyridin-3-yl]methyl}-5-methyl-1H-pyrazol-3-yl)-2-fluorovinyl]-phenyl}-1,1,1,3,3,3-hexafluoropropan-2-ol]: 20 nM. `CC(=O)OC1(c2cccc(Cn3nc(/C(F)=C/c4ccc(C5(C(F)(F)F)CC5)cc4)cc3C)c2)CC1` [Example 46, 1-[3-({3-[(Z)-1-Fluoro-2-{4-[1-(trifluoromethyl)cyclopropyl]phenyl}vinyl]-5-methyl-1H-pyrazol-1-yl}methyl)phenyl]cyclopropyl acetate]: it took 0.7 nM to reach half-maximal inhibition (IC50).

`Cc1cc(/C(F)=C/c2ccc(C(C)(C)C(F)(F)F)cc2)nn1Cc1ccnc(N2CCN(C3CC3)CC2)c1` [Example 104, 1-Cyclopropyl-4-{4-[(3-{(Z)-1-fluoro-2-[4-(1,1,1-trifluoro-2-methylpropan-2-yl)phenyl]vinyl}-5-methyl-1H-pyrazol-1-yl)methyl]pyridin-2-yl}piperazine] gave a concentration for half-maximal inhibition (IC50) of 0.4 nM. In turn, `Cc1cc(/C(F)=C/c2ccc(S(F)(F)(F)(F)F)cc2)nn1Cc1ccnc(N2CCN(C3CC3)CC2)c1` [Example 107, 1-Cyclopropyl-4-{4-[(3-{(Z)-1-fluoro-2-[4-(pentafluoro-λ^6-sulphanyl)phenyl]vinyl}-5-methyl-1H-pyrazol-1-yl)methyl]pyridin-2-yl}piperazine] had an IC50 of 0.3 nM.

In the case of `Cc1cc(/C(F)=C/c2ccc(OC(F)(F)F)cc2)nn1Cc1cccc(C(=O)N2CCN(C)CC2)c1` [Example 42, {3-[(3-{(Z)-1-Fluoro-2-[4-(trifluoromethoxy)phenyl]vinyl}-5-methyl-1H-pyrazol-1-yl)methyl]-phenyl}(4-methylpiperazin-1-yl)methanone], the IC50 stood at 4 nM. To `Cc1cc(/C(F)=C/c2ccc(CN(C(C)C)C(C)C)cc2)nn1Cc1ccnc(N2CCN(C3CC3)CC2)c1` [Example 109, N-{4-[(Z)-2-(1-{[2-(4-Cyclopropylpiperazin-1-yl)pyridin-4-yl]methyl}-5-methyl-1H-pyrazol-3-yl)-2-fluorovinyl]benzyl}-N-isopropylpropane-2-amine] belongs 1.5 nM. To `Cc1ccc(Cn2nc(/C(F)=C/c3ccc(N4CC(C)OC(C)C4)nc3)cc2C)cc1` (stereo not drawn) [Example 4, 4-(5-{(Z)-2-Fluoro-2-[5-methyl-1-(4-methylbenzyl)-1H-pyrazol-3-yl]vinyl}pyridin-2-yl)-2,6-dimethylmorpholine] belongs 2 nM; to `Cc1cc(/C(F)=C/c2ccc(C(F)(F)F)cc2)nn1Cc1cccc(C(=O)N2CCC(O)CC2)c1` [Example 36, {3-[(3-{(Z)-1-Fluoro-2-[4-(trifluoromethyl)phenyl]vinyl}-5-methyl-1H-pyrazol-1-yl)methyl]-phenyl}(4-hydroxypiperidin-1-yl)methanone], 4 nM.

As for `Cc1cc(/C=C(\F)c2ccc(OC(F)(F)F)cc2)nn1Cc1cccc(N2CC(O)C2)c1` [Example 113, 1-{3-[(3-{(Z)-2-Fluoro-2-[4-(trifluoromethoxy)phenyl]vinyl}-5-methyl-1H-pyrazol-1-yl)methyl]-phenyl}azetidin-3-ol], the IC50 was found to be 4 nM.

Consider `Cc1cc(/C(F)=C/c2ccc(C3(C(F)(F)F)CC3)cc2)nn1Cc1cccc(C(=O)N2CCN(C3CC3)CC2)c1` [Example 40, (4-Cyclopropylpiperazin-1-yl)[3-({3-[(Z)-1-fluoro-2-{4-[1-(trifluoromethyl)cyclopropyl]phenyl}-vinyl]-5-methyl-1H-pyrazol-1-yl}methyl)phenyl]methanone], for which the IC50 came to 2 nM.

Regarding `Cc1cc(/C(F)=C/c2ccc(C(C)(C)C(F)(F)F)cc2)nn1Cc1cccc(CC(C)(C)O)c1` [Example 64, 1-{3-[(3-{(Z)-1-Fluoro-2-[4-(1,1,1-trifluoro-2-methylpropan-2-yl)phenyl]vinyl}-5-methyl-1H-pyrazol-1-yl)methyl]phenyl}-2-methylpropan-2-ol], the concentration for half-maximal inhibition (IC50) stood at 2 nM.

`Cc1cc(/C(F)=C/c2ccc(C(O)(C(F)(F)F)C(F)(F)F)cc2)nn1Cc1ccnc(N2CCN(C3CC3)CC2)c1` [Example 108, 2-{4-[(Z)-2-(1-{[2-(4-Cyclopropylpiperazin-1-yl)pyridin-4-yl]methyl}-5-methyl-1H-pyrazol-3-yl)-2-fluorovinyl]phenyl}-1,1,1,3,3,3-hexafluoropropan-2-ol] gave a half-inhibitory concentration (IC50) of 3 nM.

These data come from patent US20130150325A1, “3-(Fluorovinyl)pyrazoles and their use” (BAYER INTELLECTUAL PROPERTY GMBH, priority 2011, published 2013).
